Reference: patent US9833425B2, “Gentisic acid is used to improve systemic hemodynamics, hepatic mitochondrial function and lactate acidemia in patients with septic shock” (priority 2015, dated 2017)
“Also recorded” adds a separate entry of the source.

Test system: hepatic mitochondria
Test: Oxygen consumption rates of hepatic mitochondria harvested after in vivo treatment (Seahorse XF24)
Parameters: species or system dog
Details: treated septic dogs; for coupled respiration (OCR after ADP) of hepatic mitochondria: ADP 4 mM; for maximal (uncoupled) respiration (OCR after FCCP) of hepatic mitochondria: FCCP 4 uM
Protocol: After completion of the in-vivo measurements, we administered sodium pentobarbital (110 mg/kg) to euthanize the animal. In a subset of animals of each group, we immediately harvested a piece of liver and isolated the mitochondria as described by Schnaitman and Greenawalt (23). Briefly, we minced the extracted liver in mitochondrial isolation buffer (MSHE) that includes 70 mM sucrose, 210 mM mannitol, 5 mM HEPES, 1 mM EGTA, and fatty acid free bovine serum albumin (BSA). We then disrupted the tissue using a drill-driven glass/Teflon dounce homogenizer. We centrifuged the homogenate three times, after which we re-suspended the final pellet in a minimal volume of MSHE+BSA and determined protein (mg/ml). We diluted the mitochondrial preparation in cold mitochondrial assay solution (MAS) that contained 70 mM sucrose, 220 mM mannitol, 10 mM KH2PO4, 5 mM MgCl2, 2 mM HEPES, 1 mM EGTA, and BSA for plating directly onto the custom Seahorse 24-well culture dish (˜20 ug mitochondrial protein/50 ul per well; see further below). After centrifugation of the plate and addition of appropriate substrates, we viewed the mitochondria under a microscope to ensure consistent adherence to the well. We then transferred the plate to the XF24 Analyzer for initiation of the protocol as described below (17).
To examine mitochondrial function in this model, we used a novel new technology that is capable of measuring dynamic changes in mitochondrial function, not easily attainable by other technologies (17). The Seahorse® XF24 extracellular flux analyser (Seahorse Bioscience, MA, USA) refines the technology by which mitochondrial oxygen consumption can be measured. This technology uses a piston to reversibly enclose a small volume (7 ul) above the mitochondria that can monitor oxygen uptake in that volume for 2-5 min, then raises the piston, allowing the bulk incubation medium (˜1 ml) to re-equilibrate. The ability to make up to 4 additions during the experiment allows mitochondrial respiration to be measured under various metabolic conditions. This piece of equipment has never been used to measure mitochondrial function in SS.
In this protocol, we sequentially measured mitochondrial function under various metabolic conditions (17). To obtain basal OCR, we first added a substrate to the preparation that contained pyruvate (10 mM) and malate (2 mM). We then added ADP (adenosine-diphosphate; 4 mM) that allows ATP synthase to function, producing an increase in OCR (coupled OCR) that is termed “state3ADP”. When the ATP/ADP ratio approaches equilibrium, pmf rises, after which proton reentry through the synthase stops and respiration slows. We terminated coupled respiration (i.e. state3ADP) by the addition of the ATP synthase inhibitor oligomycin (2.0 uM) in which we achieved “stateoligomycin” where ATP recycling cannot contribute and there is a stable decrease in OCR. We then added the protonophore, FCCP (4 uM; carbonyl cyanide p-trifluoromethoxy-phenylhydrazone). FCCP leads to uncoupled respiration in which we previously titrated the concentration of FCCP to yield a maximal effect. In mitochondria in which ATP synthase activity is a limiting factor, uncoupled respiration may be greater than coupled respiration. […] We finally added rotenone (R; 2 uM) and antimycin A (AA; 2 uM) which are inhibitors of the electron transport chain (ETC) complexes, I and III, respectively. When added to the mitochondrial preparation, these inhibitors produce a marked decline in mitochondrial respiration since the electron transport chain is inhibited.
With each treatment group, we obtained measurements of basal OCR, coupled OCR (i.e. state3ADP), and maximal OCR. In addition, we calculated coupled and uncoupled respiratory control ratios from state3ADP/stateoligomycin and uncoupled respiration/state FCCP/stateoligomycin, respectively. […]

[1] = listed as gentisic, sodium salt

Row | SMILES | coupled respiration (OCR after ADP) of hepatic mitochondria [1] | coupled respiration (OCR after ADP) of hepatic mitochondria (sodium salt) | maximal (uncoupled) respiration (OCR after FCCP) of hepatic mitochondria | augmented respiratory capacity (uncoupled minus coupled respiration) [1] | basal respiration (basal OCR) of hepatic mitochondria (pyruvate and malate substrate) | coupled respiration (OCR after ADP) of hepatic mitochondria
1 | O=C([O-])c1cc(O)ccc1O.[Na+] [GSS, 2,5-dihydroxybenzoic acid sodium salt] | significantly greater than the other groups; also recorded: large increase in coupled respiration | greater response to ADP as compared to the other groups | increase maximal OCR | lowest; also recorded: reduction in augmented respiratory capacity | restoring basal respiration to the non-septic control value | 
2 | O=C(O)c1cc(O)c(O)c(O)c1 [gallic acid, 3,4,5 trihydroxybenzoic acid] |  |  | restored the reduction in maximal respiration |  |  | not different from values found in the non-septic control group
